Measured values taken from patent US11414404B2, “Compounds for the treatment of BRAF-associated diseases and disorders” (Array BioPharma Inc., priority 2019, dated 2022).
Counter-ions that a name gives are not always drawn. Like-named read-outs stand apart in the source and are kept apart here.

Key:
[1] = biological target: full-length FLAG-tagged B-Raf(V600E) (Homo sapiens (Human), UniProt P15056, V600E); assay: BRAF V600E enzyme assay (TR-FRET competitive displacement of fluorescent tracer); format: binding
full-length FLAG-tagged B-Raf(V600E), sequence (P15056 whole entry V600E): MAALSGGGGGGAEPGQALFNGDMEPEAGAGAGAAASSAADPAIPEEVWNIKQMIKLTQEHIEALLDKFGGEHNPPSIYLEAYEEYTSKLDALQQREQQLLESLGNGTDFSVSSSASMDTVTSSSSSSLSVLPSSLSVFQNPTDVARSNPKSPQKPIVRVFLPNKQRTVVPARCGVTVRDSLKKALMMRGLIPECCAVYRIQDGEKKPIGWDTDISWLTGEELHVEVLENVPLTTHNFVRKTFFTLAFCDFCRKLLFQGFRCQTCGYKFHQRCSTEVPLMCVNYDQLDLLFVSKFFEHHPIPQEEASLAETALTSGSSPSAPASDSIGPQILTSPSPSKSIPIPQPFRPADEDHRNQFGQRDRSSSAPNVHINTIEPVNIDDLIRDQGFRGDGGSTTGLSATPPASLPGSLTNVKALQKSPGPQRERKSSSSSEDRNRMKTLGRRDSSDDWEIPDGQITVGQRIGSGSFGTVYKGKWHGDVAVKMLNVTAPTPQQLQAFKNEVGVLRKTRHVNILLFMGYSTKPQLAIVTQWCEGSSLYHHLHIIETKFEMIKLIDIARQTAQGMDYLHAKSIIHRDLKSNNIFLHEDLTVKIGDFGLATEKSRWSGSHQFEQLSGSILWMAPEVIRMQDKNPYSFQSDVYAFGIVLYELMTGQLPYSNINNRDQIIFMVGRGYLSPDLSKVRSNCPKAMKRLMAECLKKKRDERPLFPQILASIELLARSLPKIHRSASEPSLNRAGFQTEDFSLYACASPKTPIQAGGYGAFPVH
Description: A competitive displacement assay was configured for B-Raf that monitors the amount of a fluorescently-tagged “tracer” bound to B-Raf via TR-FRET from an anti-tag Eu-labeled antibody also bound to B-Raf.
[formula] • where: • Xmax Average Uninhibited Controls • Xmin Average Background
A 4-parameter logistic model was the fit to the POC data for each compound.

BCRP = BCRP (Homo sapiens (Human), UniProt Q9UNQ0); assay: BCRP MDCKII permeability assay: efflux ratio; conditions: dog
BCRP, sequence (Q9UNQ0 whole entry, species assumed): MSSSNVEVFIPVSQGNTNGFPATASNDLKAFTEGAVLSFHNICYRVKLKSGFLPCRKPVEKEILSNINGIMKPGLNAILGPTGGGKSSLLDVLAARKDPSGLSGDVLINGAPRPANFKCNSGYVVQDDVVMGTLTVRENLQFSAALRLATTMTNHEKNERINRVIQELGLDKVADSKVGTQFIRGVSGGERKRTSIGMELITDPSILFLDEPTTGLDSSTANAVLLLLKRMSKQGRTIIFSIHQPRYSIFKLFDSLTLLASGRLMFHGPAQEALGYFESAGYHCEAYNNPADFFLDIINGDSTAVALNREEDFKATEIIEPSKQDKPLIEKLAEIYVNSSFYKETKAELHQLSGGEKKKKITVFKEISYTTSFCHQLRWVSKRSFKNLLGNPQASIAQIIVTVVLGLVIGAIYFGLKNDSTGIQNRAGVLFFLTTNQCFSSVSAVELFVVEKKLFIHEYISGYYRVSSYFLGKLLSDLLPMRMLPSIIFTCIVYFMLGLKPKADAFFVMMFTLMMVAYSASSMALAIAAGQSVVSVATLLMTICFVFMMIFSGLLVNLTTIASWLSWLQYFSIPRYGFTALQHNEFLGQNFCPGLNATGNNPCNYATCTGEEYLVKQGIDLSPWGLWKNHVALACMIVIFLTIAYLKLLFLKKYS
Description: (§1) BCRP transfected MDCKII cells were cultured and plated according to manufacturer's recommendations. Assay conditions included with and without the BCRP-specific inhibitor, K0143, at a concentration of 0.3 μM to ascertain the contribution of BCRP to the efflux value of the test compound.
(§2) Both positive and negative controls were used to assess functionality of P-gp or BCRP efflux in the assays. […] Final organic concentration in the assay was 1%. All dosing solutions contained 10 μM lucifer yellow to monitor LLC-PK1 or MDCKII cell monolayer integrity.
(§3) For the apical to basolateral determination (A to B), 75 μL of the test article in transport buffer were added to the apical side of the individual transwells and 250 μL of basolateral media, without compound or lucifer yellow, were added to each well. For the basolateral to apical determination (B to A), 250 μL of test article in transport buffer were added to each well and 75 μL transport buffer, without compound or lucifer yellow, were added to each transwell. All tests were performed in triplicate, and each compound was tested for both apical to basolateral and basolateral to apical transport. The plates were incubated for 2 hours on a Lab-Line Instruments Titer Orbital Shaker (VWR, West Chester, Pa.) at 50 rpm and 37° C. with 5% CO2. All culture plates were removed from the incubator and 50 μL of media were removed from the apical and basolateral portion of each well and added to 150 μL of 1 μM labetalol in 2:1 acetonitrile (acetonitrile): H2O, v/v.
(§4) These values were accepted when found to be below 2% for apical to basolateral and 5% basolateral to apical flux across the MDR1-transfected LLC-PK1 or BCRP-transfected MDCKII cell monolayers. The plates were sealed and the contents of each well analyzed by LC-MS/MS. The compound concentrations were determined from the ratio of the peak areas of the compound to the internal standard (labetalol) in comparison to the dosing solution.
(§5) The LC-MS/MS system was comprised of an HTS-PAL autosampler (Leap Technologies, Carrboro, N.C.), an HP1200 HPLC (Agilent, Palo Alto, Calif.), and a MDS Sciex 4000 Q Trap system (Applied Biosystems, Foster City, Calif.). […] The total run time, including re-equilibration, for a single injection was 1.2 minutes. Mass spectrometric detection of the analytes was accomplished using the ion spray positive mode.
(§6) An efflux ratio is calculated from the mean apical to basolateral (A−B) Papp data and basolateral to apical (B−A) Papp data: Efflux ratio=Papp(B−A)/Papp(A−B)

P-gp (MDR1) = P-gp (MDR1) (Homo sapiens (Human), UniProt P08183); assay: MDR1 LLC-PK1 permeability assay: efflux ratio; conditions: pig, LLC-PK1
P-gp (MDR1), sequence (P08183 whole entry, species assumed): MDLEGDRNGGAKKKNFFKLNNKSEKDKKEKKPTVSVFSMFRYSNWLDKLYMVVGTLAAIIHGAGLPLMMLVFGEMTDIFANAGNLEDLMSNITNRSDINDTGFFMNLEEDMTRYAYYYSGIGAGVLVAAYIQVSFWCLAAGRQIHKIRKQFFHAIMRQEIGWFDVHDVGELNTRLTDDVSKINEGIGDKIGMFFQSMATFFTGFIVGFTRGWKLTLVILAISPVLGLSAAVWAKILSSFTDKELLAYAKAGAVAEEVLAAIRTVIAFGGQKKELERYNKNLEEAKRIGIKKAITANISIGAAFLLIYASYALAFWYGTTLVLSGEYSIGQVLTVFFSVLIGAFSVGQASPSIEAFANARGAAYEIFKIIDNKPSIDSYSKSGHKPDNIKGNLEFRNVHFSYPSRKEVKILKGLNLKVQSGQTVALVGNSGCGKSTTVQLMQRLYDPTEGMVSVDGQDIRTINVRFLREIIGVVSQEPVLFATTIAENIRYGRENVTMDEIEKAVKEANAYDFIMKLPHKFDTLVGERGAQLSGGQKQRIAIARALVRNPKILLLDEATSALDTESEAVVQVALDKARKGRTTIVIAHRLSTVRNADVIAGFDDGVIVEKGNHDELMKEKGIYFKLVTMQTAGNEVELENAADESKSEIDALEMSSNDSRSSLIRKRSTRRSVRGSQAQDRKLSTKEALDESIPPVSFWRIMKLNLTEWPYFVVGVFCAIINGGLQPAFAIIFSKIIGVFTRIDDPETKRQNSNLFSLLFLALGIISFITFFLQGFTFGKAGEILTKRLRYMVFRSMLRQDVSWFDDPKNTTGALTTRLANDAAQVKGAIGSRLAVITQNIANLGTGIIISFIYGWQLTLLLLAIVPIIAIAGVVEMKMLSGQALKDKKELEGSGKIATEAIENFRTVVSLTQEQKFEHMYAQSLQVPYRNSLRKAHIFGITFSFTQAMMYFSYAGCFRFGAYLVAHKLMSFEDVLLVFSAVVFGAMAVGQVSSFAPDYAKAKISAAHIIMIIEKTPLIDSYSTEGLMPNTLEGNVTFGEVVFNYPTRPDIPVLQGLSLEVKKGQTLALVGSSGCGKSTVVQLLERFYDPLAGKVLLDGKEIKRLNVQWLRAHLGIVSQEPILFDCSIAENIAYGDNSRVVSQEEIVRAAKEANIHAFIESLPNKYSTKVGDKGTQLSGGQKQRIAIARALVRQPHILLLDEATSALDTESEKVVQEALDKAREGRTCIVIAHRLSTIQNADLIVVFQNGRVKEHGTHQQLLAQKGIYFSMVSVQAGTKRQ
Description: (§7) Both LLC-PK1 and MDR1 transfected LLC-PK1 cells were cultured and plated according to manufacturer's recommendations with the exception that the passage media contained only 2% fetal bovine serum to extend passage time out to seven days.
as §2, §3, §4, §5, §6

[2] = MDR1 LLC-PK1 and BCRP MDCKII permeability assay: permeability coefficient (Papp)
Description: as §7, §1, §2, §3, §4, §5
where Cd, V, t and C0 are the detected concentration (μM), the volume on the dosing side (mL); the incubation time (s) and the initial dosing concentration (μM), respectively. The calculations for Papp were made for each replicate and then averaged.

[3] = averaged IC50, 60 min at ambient temperature, 11-point dosing, top dose 10 μM

Compound	IC50 [1, 3] [nM]	efflux ratio at 2 h, 1 µM (BCRP)	efflux ratio at 2 h, 1 µM (P-gp (MDR1))	Papp at 2 h, 1 µM [2] [×10⁻⁶ cm/s]	IC50 [1] [nM]
Cc1c(Nc2c(F)ccc(NS(=O)(=O)CCCF)c2F)ccc2ncn(C)c(=O)c12 [Example 2, N-(3-((3,5-dimethyl-4-oxo-3,4-dihydroquinazolin-6-yl)amino)-2,4-difluorophenyl)-3-fluoropropane-1-sulfonamide]	14.2	18.6	3.92	30.1	
CCCS(=O)(=O)Nc1cccc(Nc2ccc3ncn(C)c(=O)c3c2C)c1Cl [Example 3, N-(2-chloro-3-((3,5-dimethyl-4-oxo-3,4-dihydroquinazolin-6-yl)amino)phenyl)propane-1-sulfonamide]	70.5	0.87	1.37	25.8	
CCCS(=O)(=O)Nc1cc(F)c(F)c(Nc2ccc3ncn(C)c(=O)c3c2C)c1F [Example 5, N-(3-((3,5-dimethyl-4-oxo-3,4-dihydroquinazolin-6-yl)amino)-2,4,5-trifluorophenyl)propane-1-sulfonamide]	6.25	8.33	2.24	26.7	
Cc1c(Nc2c(F)c(F)cc(NS(=O)(=O)CCCF)c2F)ccc2ncn(C)c(=O)c12 [Example 6, N-(3-((3,5-dimethyl-4-oxo-3,4-dihydroquinazolin-6-yl)amino)-2,4,5-trifluorophenyl)-3-fluoropropane-1-sulfonamide]	1.75	25.2	4.68	22.2	
Cc1c(Nc2c(F)c(F)cc(NS(=O)(=O)CCCF)c2Cl)ccc2ncn(C)c(=O)c12 [Example 8, N-(2-chloro-3-((3,5-dimethyl-4-oxo-3,4-dihydroquinazolin-6-yl)amino)-4,5-difluorophenyl)-3-fluoropropane-1-sulfonamide]	1.45	11.2	1.61	27.5	
Cc1c(Nc2c(F)ccc(NS(=O)(=O)CCCF)c2Cl)ccc2ncn(C)c(=O)c12 [Example 10, N-(2-chloro-3-((3,5-dimethyl-4-oxo-3,4-dihydroquinazolin-6-yl)amino)-4-fluorophenyl)-3-fluoropropane-1-sulfonamide]				41	
CCCS(=O)(=O)Nc1cc(F)cc(Nc2ccc3ncn(C)c(=O)c3c2C)c1F [Example 11, N-(3-((3,5-dimethyl-4-oxo-3,4-dihydroquinazolin-6-yl)amino)-2,5-difluorophenyl)propane-1-sulfonamide]	16.1	2.35	1.65	28.6	
CCCS(=O)(=O)Nc1cc(F)cc(Nc2ccc3ncn(C)c(=O)c3c2C)c1Cl [Example 12, N-(2-chloro-3-((3,5-dimethyl-4-oxo-3,4-dihydroquinazolin-6-yl)amino)-5-fluorophenyl)propane-1-sulfonamide]	9.75	1.13	0.93	27	
CCCS(=O)(=O)Nc1cc(Cl)cc(Nc2ccc3ncn(C)c(=O)c3c2C)c1F [Example 13, N-(5-chloro-3-((3,5-dimethyl-4-oxo-3,4-dihydroquinazolin-6-yl)amino)-2-fluorophenyl)propane-1-sulfonamide]	4.6	1.51	1.35	24.3	
CCCS(=O)(=O)Nc1ccc(Cl)c(Nc2ccc3ncn(C)c(=O)c3c2C)c1Cl [Example 14, N-(2,4-dichloro-3-((3,5-dimethyl-4-oxo-3,4-dihydroquinazolin-6-yl)amino)phenyl)propane-1-sulfonamide]	13.9	1.08	1.38	26.5	
CCCS(=O)(=O)Nc1ncc(Cl)c(Nc2ccc3ncn(C)c(=O)c3c2C)c1Cl [Example 15, N-(3,5-dichloro-4-((3,5-dimethyl-4-oxo-3,4-dihydroquinazolin-6-yl)amino)pyridin-2-yl)propane-1-sulfonamide]	4.55	4.5	1.87	24.1	
CCCS(=O)(=O)Nc1ncc(F)c(Nc2ccc3ncn(C)c(=O)c3c2C)c1F [Example 16, N-(4-((3,5-dimethyl-4-oxo-3,4-dihydroquinazolin-6-yl)amino)-3,5-difluoropyridin-2-yl)propane-1-sulfonamide]	17	20.3	4.76	21.3	
Cc1c(Nc2c(F)cnc(NS(=O)(=O)CCCF)c2F)ccc2ncn(C)c(=O)c12 [Example 17, N-(4-((3,5-dimethyl-4-oxo-3,4-dihydroquinazolin-6-yl)amino)-3,5-difluoropyridin-2-yl)-3-fluoropropane-1-sulfonamide]	9.7	25.3	5.07	6.65	
CCCS(=O)(=O)Nc1ncc(F)c(Nc2ccc3ncn(C)c(=O)c3c2C)c1Cl [Example 18, N-(3-chloro-4-((3,5-dimethyl-4-oxo-3,4-dihydroquinazolin-6-yl)amino)-5-fluoropyridin-2-yl)propane-1-sulfonamide]	7.85	10.4	1.52	27.9	
Cc1c(Nc2c(F)cnc(NS(=O)(=O)CCCF)c2Cl)ccc2ncn(C)c(=O)c12 [Example 19, N-(3-chloro-4-((3,5-dimethyl-4-oxo-3,4-dihydroquinazolin-6-yl)amino)-5-fluoropyridin-2-yl)-3-fluoropropane-1-sulfonamide]	6.2	21.1	3.24	15.9	
Cc1c(Nc2c(F)ccc(NS(=O)(=O)c3ccco3)c2Cl)ccc2ncn(C)c(=O)c12 [Example 20, N-(2-chloro-3-((3,5-dimethyl-4-oxo-3,4-dihydroquinazolin-6-yl)amino)-4-fluorophenyl)furan-2-sulfonamide]	0.7	7.43	1.86	32.9	
Cc1c(Nc2c(F)ccc(NS(=O)(=O)N3CCCC3)c2Cl)ccc2ncn(C)c(=O)c12 [Example 21, N-(2-chloro-3-((3,5-dimethyl-4-oxo-3,4-dihydroquinazolin-6-yl)amino)-4-fluorophenyl)pyrrolidine-1-sulfonamide]	34.7	0.77	1.22	19.2	
Cc1c(Nc2c(F)ccc(NS(=O)(=O)N3CC[C@@H](F)C3)c2Cl)ccc2ncn(C)c(=O)c12 [Example 22, (R)—N-(2-chloro-3-((3,5-dimethyl-4-oxo-3,4-dihydroquinazolin-6-yl)amino)-4-fluorophenyl)-3-fluoropyrrolidine-1-sulfonamide]	13.7	1.49	1.63	34.3	
[2H]C([2H])([2H])n1cnc2ccc(Nc3c(F)ccc(NS(=O)(=O)CCCF)c3Cl)c(C)c2c1=O [Example 23, N-(2-chloro-4-fluoro-3-((5-methyl-3-(methyl-d3)-4-oxo-3,4-dihydroquinazolin-6-yl)amino)-phenyl)-3-fluoropropane-1-sulfonamide]				39.5	
[2H]C([2H])([2H])n1cnc2ccc(Nc3c(F)ccc(NS(=O)(=O)CCC)c3Cl)c(C)c2c1=O [Example 24, N-(2-chloro-4-fluoro-3-((5-methyl-3-(methyl-d3)-4-oxo-3,4-dihydroquinazolin-6-yl)amino)phenyl)propane-1-sulfonamide]		1.18	1.59	25.6	9.05
Cc1c(Nc2c(F)ccc(NS(=O)(=O)c3cc(F)ccc3F)c2Cl)ccc2ncn(C)c(=O)c12 [Example 25, N-(2-chloro-3-((3,5-dimethyl-4-oxo-3,4-dihydroquinazolin-6-yl)amino)-4-fluorophenyl)-2,5-difluorobenzenesulfonamide]	0.34	1.8	1.82	22.1	
Cc1c(Nc2c(F)ccc(NS(=O)(=O)c3ccccn3)c2Cl)ccc2ncn(C)c(=O)c12 [Example 26, N-(2-chloro-3-((3,5-dimethyl-4-oxo-3,4-dihydroquinazolin-6-yl)amino)-4-fluorophenyl)pyridine-2-sulfonamide]	49.2	6.46	2.04	30.2	
CCCS(=O)(=O)Nc1ccc(F)c(Nc2ccc3ncn(C(C)C)c(=O)c3c2C)c1Cl [Example 36, N-(2-chloro-4-fluoro-3-((3-isopropyl-5-methyl-4-oxo-3,4-dihydroquinazolin-6-yl)amino)phenyl)propane-1-sulfonamide trifluoroacetate]	26.4	1.22	1.17		
Cc1c(Oc2c(F)ccc(NS(=O)(=O)CCCF)c2F)ccc2ncn(C)c(=O)c12 [Example 56, N-(3-((3,5-dimethyl-4-oxo-3,4-dihydroquinazolin-6-yl)oxy)-2,4-difluorophenyl)-3-fluoropropane-1-sulfonamide]	12.9	3.14	2.81		
CCCS(=O)(=O)Nc1nccc(Oc2ccc3ncn(C)c(=O)c3c2C)c1Cl [Example 57, N-(3-chloro-4-((3,5-dimethyl-4-oxo-3,4-dihydroquinazolin-6-yl)oxy)pyridin-2-yl)propane-1-sulfonamide]	96	2.08	0.91		
